What was measured:
Experiment in all cases: AUC of viability dose-response curve (% viability x log10 dose units); higher = less sensitive
Details in all cases: 48 h
P12-Ichikawa = tested on: P12-Ichikawa
Method in brief: (§1)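 Leukemia cells adapted to each medium were seeded at 500 or 1000 cells/well in 1536-well plates and dosed with library compounds in DMSO at 11 threefold doses from 47 μM to 0.79 nM for 48 h at 37°C. CellTiter-Glo One luminescence was normalised per plate to DMSO and cell-free wells, then fitted with a four-parameter log-logistic model over log10 doses. Area under the curve was taken from this fit by the trapezoidal rule, with curves above full viability scaled and curves failing quality control removed.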

SEM cells = tested on: SEM cells
Method in brief: as §1

NOMO1 = tested on: NOMO1
Method in brief: as §1

[1] = RPMI 5 mM glucose + 10% dialyzed FBS

Row | Compound | AUC of viability dose-response curve (P12-Ichikawa; HPLM + 10% dialyzed FBS) | AUC of viability dose-response curve (P12-Ichikawa; RPMI 5 mM glucose + 10% FBS) | AUC of viability dose-response curve (P12-Ichikawa; [1]) | AUC of viability dose-response curve (SEM cells; HPLM + 10% dialyzed FBS) | AUC of viability dose-response curve (SEM cells; RPMI 5 mM glucose + 10% FBS) | AUC of viability dose-response curve (SEM cells; [1]) | AUC of viability dose-response curve (NOMO1; HPLM + 10% dialyzed FBS) | AUC of viability dose-response curve (NOMO1; RPMI 5 mM glucose + 10% FBS) | AUC of viability dose-response curve (NOMO1; [1])
1 | CO[C@H]1C[C@@H]2CC[C@@H](C)[C@@](O)(O2)C(=O)C(=O)N2CCCC[C@H]2C(=O)O[C@H]([C@@H](C)C[C@@H]2CC[C@@H](O)[C@H](OC)C2)CC(=O)[C@H](C)/C=C(\C)[C@@H](O)[C@@H](OC)C(=O)[C@H](C)C[C@H](C)/C=C/C=C/C=C/1C | 465 | 415 | 443 | 394 | 382 | 409 | 454 | 442 | 466
2 | NC[C@H](O)c1ccc(O)c(O)c1 | 460 | 457 | 439 | 443 | 453 | 456 | 411 | 452 | 427
3 | COc1cc2c(cc1OC)CN(CCc1ccc(NC(=O)c3cccc4c(=O)c5cccc(OC)c5[nH]c34)cc1)CC2 | 326 | 372 | 366 | 380 | 276 | 320 | 348 | 391 | 395
4 | Clc1ccc(CCC(Cn2ccnc2)Sc2c(Cl)cccc2Cl)cc1 (configuration not stated) | 450 | 444 | 404 | 366 | 422 | 408 | 449 | 402 | 432
5 | O=C1\C=C(OC2=C(C=CC=C12)C3=CC=CC4=C3SC5=C4C=CC=C5)\N6CCOCC6 | 471 | 456 | 469 | 446 | 425 | 432 | 474 | 464 | 467
6 | CCCC[S+](=N)([O-])CCC(N)C(=O)O (configuration not stated) | 453 | 469 | 465 | 459 | 462 | 458 | 441 | 462 | 461
7 | O=C(Nc1cccnc1)N1CCC(Cc2cccc(Oc3ccc(C(F)(F)F)cn3)c2)CC1 | 361 | 346 | 344 | 337 | 299 | 303 | 405 | 427 | 425
8 | CC(C)(Sc1cc(C(C)(C)C)c(O)c(C(C)(C)C)c1)Sc1cc(C(C)(C)C)c(O)c(C(C)(C)C)c1 | 445 | 414 | 405 | 385 | 415 | 409 | 449 | 428 | 436
9 | Cc1noc(N[S+](=O)([O-])c2ccc(N)cc2)c1C | 460 | 468 | 463 | 448 | 457 | 456 | 464 | 457 | 426
10 | CC[C@H](C)C(=O)O[C@H]1C[C@@H](C)\C=C2\C=C/[C@H](C)[C@H](CC[C@@H]3C[C@@H](O)CC(=O)O3)[C@@H]12 | 415 | 373 | 379 | 384 | 386 | 408 | 437 | 411 | 411
11 | CN1CCC(CNc2ccc3ncc(-c4cccc(OC(F)(F)F)c4)n3n2)CC1 | 449 | 435 | 420 | 329 | 334 | 340 | 429 | 399 | 425
12 | O=C(O)c1cccc(-c2noc(-c3ccccc3F)n2)c1 | 470 | 465 | 465 | 454 | 457 | 472 | 456 | 451 | 465
13 | CN(C)C(=O)[C@H](O)[C@H](Cc1ccccc1)NC(=O)c1cc2cc(Cl)ccc2[nH]1 | 448 | 442 | 456 | 359 | 340 | 359 | 418 | 456 | 435
14 | O=C(O)c1cccnc1 | 408 | 426 | 403 | 330 | 360 | 356 | 369 | 402 | 385
15 | Cc1nnc(C(=O)NC(C)(C)c2nc(C(=O)NCc3ccc(F)cc3)c(O)c(=O)n2C)o1 | 448 | 454 | 465 | 473 | 449 | 465 | 428 | 449 | 470
16 | CCOc1cc(C(=O)Nc2ccc(Cl)c(-c3nc4ccccc4[nH]3)c2)cc(OCC)c1OCC | 431 | 418 | 387 | 378 | 392 | 371 | 475 | 410 | 431
17 | Cc1nnc(C(C)C)n1[C@@H]1C[C@H]2CC[C@@H](C1)N2CC[C@H](NC(=O)C1CCC(F)(F)CC1)c1ccccc1 | 460 | 454 | 437 | 425 | 379 | 419 | 445 | 411 | 394
18 | C[C@@H](Cc1cc2c(c(C(N)=O)c1)N(CCCO)CC2)NCCOc1ccccc1OCC(F)(F)F | 472 | 472 | 472 | 438 | 465 | 463 | 457 | 458 | 466

From the supplement of paper PMC11451515
